# Measurements from EP1596818B1, “COSMETIC COMPOSITION WITH A WHITENING EFFECT, METHOD FOR THE PRODUCTION AND USE THEREOF” (Riemschneider, Randolph, Dr. Dr. Prof., priority 2003, dated 2004).
# Where two headings read alike, the source gives them in different places.
# Tests used:
# Tyrosinase = Tyrosinase inhibitor rate; assay type: biochemical
# [1] = Preclinical test of local tolerability
# Description: Zusammenfassung: der Wirkstoff Methyl-ADAPD ist im Patch-Test auf allergisierendes Potenzial geprüft worden. In einer präklinischen Prüfung wurde die lokale Verträglichkeit abgeklärt.
# [2] = test system: B16-Melanom-Zellen von Mäusen; assay: B16 melanoma cell test for whitening effect (inhibition of melanin production); assay type: cell-based; conditions: for Anzahl der Zellen: lyophilisate from aqueous phase of the hand cream, 6 days culture
# Experimental: (§1) Nach Zerstörung der Emulsion der Handcreme durch Wasserzusatz und Erhitzen auf 80 °C wurde die wässrige Phase abgetrennt, im Vakuum eingeengt und der Zentrifugenrückstand wurde gefriergetrocknet.
# (§2) Definierte Mengen des dabei erhaltenen Lyophilisats wurden in entionisiertem Wasser gelöst und nach den Angaben in dem weiter unten beschriebenen Testverfahren behandelt. Tabelle 1
# (§3) Die grobe Beurteilung der Whitening-Effekte wurde vorgenommen nach der Abtrennung der Zellen unter Verwendung von 6 ml EDTA-Lösung und Auszählen der Zellen, z.B. Tabelle 1 und Tabelle 3 (Beurteilungskriterien auf S. 15).
# (§4) • 1. Herstellung und Sterilisierung eines Test-Kulturmediums • 2. Herstellung einer Zellenflotationslösung • 3. Einstellung des pH-Wertes des Kulturmediums • 4. Ausstreichen des Kulturmediums auf einer Petrischale • 5. Einimpfen von B16-Melanom-Zellen von Mäusen • 6. […] Auswechseln des Kulturmediums am 3. Tag • 8.
# [3] = as above; assay type: cell-based, Mäusen; conditions: mouse, b16 melanoma cells, cell number relative to control (1,00), read-out: Relativwert
# Experimental: as §1, §2, §3, §4
# [4] = Wirkstoff-Gehalt 1,25 mg/ml Lösung
# [5] = Wirkstoff-Gehalt 2,5 mg/ml Lösung
smiles,measurement,setting,value
CC(=O)C1C(=O)C=C(C)OC1=O (stereo not drawn) [Methyl-ADAPD],Tyrosinase-Inhibitorrate,"Tyrosinase; Wirkstoff-Gehalt 0,5 mg/ml Lösung",84%
same,Tyrosinase-Inhibitorrate,Tyrosinase; Wirkstoff-Gehalt 5 mg/ml Lösung,"99,1%"
same,lokale Verträglichkeit,[1],keine Bedenken
same,Whitening-Effekt,[2]; [4],+
same,Anzahl der Zellen,[2]; [4],82x10^4
same,Whitening-Effekt,[2]; [5],+++
same,Anzahl der Zellen,[2]; [5],79x10^4
same,viability at 144 h,[3]; [4],92%
same,viability at 144 h,[3]; [5],86%
